# Data taken from patent US11266617B2, “Beta-hydroxybutyrate encapsulated PLGA nanoparticle compositions” (Massachusetts Institute of Technology, priority 2018, dated 2022).
# Key:
# intestinal crypts = test: HDAC inhibitor treatment of Hmgcs2-null mice, crypt histology (NICD, H3K27ac, OLFM4, LYZ, AB/PAS); type: in vivo, mouse; settings: 1 mg/kg, 5 i.p. injections
# Hes1-GFP organoids = test: Hes1-GFP organoid reporter assay (GFP by flow cytometry); type: cell-based, mouse; settings: GSI 10 uM, βOHB 50 uM, JNJ-26481585 0.2 nM; compared to control
# Description: FIGS. 5A-5G show βOHB-mediated HDAC inhibition enhances NOTCH signaling. FIG. 5A, Violin plots of genes related to FIG. 12A: Notch receptor Notch1, Class I HDAC genes: HDAC1/2/3 and Notch target Hes1, based on a previously published scRNA-Seq data (Haber et al., 2017). FIG. 5B, Representative flow cytometry plots (top) and quantification of GFP expression (bottom) Hes1-GFP+ primary organoids exposed to γ-secretase inhibitor (GSI, 10 uM), βOHB (50 uM) and HDAC inhibitor (JNJ-26481585, 0.2 nM), compared to control condition. n=6 samples per treatment from n=3 mice. FIG. 5C, Organoid-forming assay for intestinal crypts isolated from WT and Hmgcs2-KO mice, with combinations of HDAC inhibitor JNJ-26481585 (JNJ) or βOHB treatments or Notch receptor inhibitor (GSI, gamma secretase inhibitor). Quantification and representative images: day-5-to-7 organoids. n=4 mice. Scale bar: 500 μm. Arrows indicate organoids and asterisks indicate aborted crypts. FIG. 5D, Schematic (top) of the mouse model including the timeline of tamoxifen (TAM) and HDACi (JNJ) injection and tissue collection. Nuclear NICD, a measure of Notch activation, by immunofluorescence (IF). […] FIG. 5E, Quantification of OLFM4^+ stem cells, LYZ+ Paneth cells and AB/PAS+ goblet cells in proximal jejunal crypts by IHC. […] FIG. 5G, Quantification and representative images of tdTomato+ Lgr5^+ ISC-derived lineage (cell progenies) by IHC. […] For box-and-whisker plots (FIG. 5C) data were expressed as box-and-whisker 10 to 90 percentiles, Data in bar graph (FIG. 5D) and dot plot (FIG. 5E and FIG. 5G) are expressed as mean+/−s.e.m. *p<0.05, **p<0.01, ***p<0.005, ****p<0.0001. […]
# As previously reported and briefly summarized here (Mihaylova et al., 2018), small intestines were removed, washed with cold PBS, opened longitudinally and then incubated on ice with PBS plus EDTA (10 mM) for 30-45 min. […] Isolated crypts for cultures were counted and embedded in Matrigel™ (Corning 356231 growth factor reduced) at 5-10 crypts per μL and cultured in a modified form of medium as described previously (Sato et al., 2009; Yilmaz et al., 2012). […]
# Lgr5+ ISCs = test: Intestinal regeneration after irradiation in Hmgcs2-KO mice (Lgr5 lineage tracing); type: in vivo, mouse; settings: Hmgcs2-null mice; 1 mg/kg, 5 i.p. injections; XRT 7.5 Gy×2
# Description: FIG. 4F, Schematic (top) of the mouse model including the timeline of tamoxifen (TAM) injection, oral administration of nanoparticle PLGA encapsulated βOHB or non-encapsulated βOHB oligomers, irradiation (XRT, 7.5 Gy×2) and tissue collection. Quantification (bottom) and representative images (right) of tdTomato+ Lgr5^+ ISC-derived lineage (cell progenies) by IHC. Scale bar: 100 μm. n>25 crypts per measurement, n>5 measurements per mouse and n>3 mice per group. […] Data in dot plots were expressed as mean+/−s.e.m. *p<0.05, **p<0.01, ***p<0.005.
# Hmgcs2-null ISCs = test: Organoid-forming assay with Hmgcs2-null crypts/ISCs; type: cell-based, mouse; settings: for organoid-forming capacity of Hmgcs2-null ISCs: lactate at comparable concentrations, day-5-to-7 organoids
# Description: FIGS. 11A-11N. Characterization of fatty acid oxidation (FAO) and ketogenesis in intestinal crypts. Related to FIG. 4. FIG. 11A, Schematic of the mouse model for intestinal Cpt1a deletion with the timeline for tamoxifen (TAM) injections and tissue collection. FIG. 11B, Immunohistochemistry (IHC) for CPT1a (rate limiting step of FAO) and FIG. 11C, HMGCS2 levels in WT and intestinal Cpt1a loss. Images represent one of 5 biological replicates per group. FIG. 11D, βOHB levels in Cpt1a-null intestinal crypts. n=8 measurements for 4 mice per group. […] The image represents one of 8 biological replicates. FIG. 11F, IHC for HMGCS2, indicating intact HMGCS2 expression in the absence of Paneth cell. The image represents one of 8 biological replicates. For FIGS. 11C-11F, Scale bar: 50 um. FIG. 11G, Schematic of the mouse model for intestinal Hmgcs2 deletion with the timeline for TAM injections and tissue collection. FIG. 11H, Hepatic and intestinal HMGCS2 expression by IHC and FIG. 11I, serum βOHB levels in Hmgcs2-KO mice. FIG. 11J, Intestinal CPT1a expression in mice with conditional intestinal loss of Hmgcs2 by IHC, Scale bar: 100 um. The image represents one of 5 biological replicates. […] FIG. 11L, Organoid-forming assay for number of organoids per intestinal crypt, numbers of Alcian blue^+ goblet cells (black arrows) and percentage of tdTomato^+ area per organoid from WT and Hmgcs2-KO (−/−) ISCs, ±βOHB treatments: +, 10 uM and ++50 uM. Representative images: day-5-to-7 organoids. Scale bar: 50 μm. n=5 mice. […] N, Synthesis of glycerol tri((R)-3-hydroxybutyrate).
# As previously reported and briefly summarized here (Mihaylova et al., 2018), small intestines were removed, washed with cold PBS, opened longitudinally and then incubated on ice with PBS plus EDTA (10 mM) for 30-45 min. Tissues were then moved to PBS. Crypts were then mechanically separated from the connective tissue by shaking or by scraping, and then filtered through a 70-μm mesh into a 50-mL conical tube to remove villus material and tissue fragments. Isolated crypts for cultures were counted and embedded in Matrigel™ (Corning 356231 growth factor reduced) at 5-10 crypts per μL and cultured in a modified form of medium as described previously (Sato et al., 2009; Yilmaz et al., 2012). Unless otherwise noted, crypt culture media consists of Advanced DMEM (Gibco) that was supplemented with EGF 40 ng mL^−1 (PeproTech), Noggin 200 ng mL^−1 (PeproTech), R-spondin 500 ng mL^−1 (R&D, Sino Bioscience or (Ootani et al., 2009)), N-acetyl-L-cysteine […] (Sigma-Aldrich), N2 1× (Life Technologies), B27 1× (Life Technologies), CHIR99021 3 μM (LC laboratories), and Y-27632 dihydrochloride monohydrate 10 μM (Sigma-Aldrich). Intestinal crypts were cultured in the above-mentioned media in 20-25 μL droplets of Matrigel™ were plated onto a flat bottom 48-well plate (Corning 3548) and allowed to solidify for 20-30 minutes in a 37° C. incubator. Three hundred microliters of crypt culture medium was then overlaid onto the Matrigel™, changed every three days, and maintained at 37° C. in fully humidified chambers containing 5% CO2. Clonogenicity (colony-forming efficiency) was calculated by plating 50-300 crypts and assessing organoid formation 3-7 days or as specified after initiation of cultures. β-Hydroxybutyrate (Sigma, 54965), Quisinostat (JNJ-26481585) 2HCl (Selleckchem, S1096), Entinostat (MS-275) (Selleckchem, S1053), Trichostatin A (Selleckchem, 51045) and γ-secretase inhibitor MK-0752 (Cayman Chemical Company, 471905-41-6) were added into cultures as indicated in the figure legends. Plasmids for Hdac1 CRISPR-deletion (sc-436647), Cre-expression (sc-418923), Cre-expression and Hmgcs2 CRISPR-deletion (VB180615-1103gue) were used for organoid transfection according to manufacturers' instructions.
# If not directly used for cultures, crypts were then dissociated into single cells and sorted by flow cytometry. […]
# class I HDACs = settings: reported (Shimazu et al., 2013); cited from earlier work
compound,measurement,setting,value
"Cn1cc(CNCC2CCN(c3ncc(C(=O)NO)cn3)CC2)c2ccccc21 [Quisinostat, Quisinostat (JNJ-26481585) 2HCl]",decline in ISCs numbers (OLFM4+ stem cells),intestinal crypts,rescued
same,decrease in numbers of H3K27ac or NICD positive crypt cell nuclei,intestinal crypts,prevented these changes
same,expansion of secretory cell types,intestinal crypts,rescued
same,GFP expression of Hes1-GFP organoids (NOTCH target gene expression),Hes1-GFP organoids,increased GFP expression
same,ISC function after injury,Lgr5+ ISCs,rescued
same,crypt organoid-forming capacity of Hmgcs2-null crypts,"Hmgcs2-null ISCs; HDAC inhibitor at a dose shown to block HDAC1 activity, alone or with βOHB",rescued crypt organoid-forming capacity
"O=C(O)CC[C@H]1CC[C@@](c2cc(F)ccc2F)(S(=O)(=O)c2ccc(Cl)cc2)CC1 [GSI, MK-0752]",GFP expression of Hes1-GFP organoids (NOTCH target gene expression),Hes1-GFP organoids,dampened GFP expression
same,restoration of organoid-forming capacity of Hmgcs2-null crypts by βOHB or JNJ under NOTCH blockade,Hmgcs2-null ISCs; GSI added to βOHB or JNJ treated cultures,prevented the ability of either βOHB or JNJ HDAC inhibitor
"Nc1ccccc1NC(=O)c1ccc(CNC(=O)OCc2cccnc2)cc1 [MS-275, Entinostat (MS-275)]",Hmgcs2-null organoid function,Hmgcs2-null ISCs; 10-to-100 nM,rescued
same,Hmgcs2-null organoid function,Hmgcs2-null ISCs; doses beyond 10-to-100 nM,failed to do so
"CC(O)CC(=O)O (stereo not drawn) [βOHB, β-hydroxybutyrate]",GFP expression of Hes1-GFP organoids (NOTCH target gene expression),Hes1-GFP organoids,increased GFP expression
same,secretory lineage bias of Hmgcs2-null organoids,"Hmgcs2-null ISCs; βOHB 10 uM and 50 uM, Alcian blue+ goblet cells",rectified
same,organoid-forming capacity of Hmgcs2-null ISCs,Hmgcs2-null ISCs; βOHB 10 uM and 50 uM,rectified
same,generation of tdTomato+ clones by Hmgcs2-null ISCs,"Hmgcs2-null ISCs; βOHB 10 uM and 50 uM, tdTomato+ area per organoid",rectified
same,inhibition of class I HDACs,class I HDACs,endogenous inhibitor for class I HDACs
CC(O)C(=O)O (centres unmarked) [lactate],organoid-forming capacity of Hmgcs2-null ISCs,Hmgcs2-null ISCs; βOHB 10 uM and 50 uM,not
same,organoid-forming capacity of Hmgcs2-null ISCs,"Hmgcs2-null ISCs; βOHB 10 uM and 50 uM, listed as Lactate",did not affect
